The values below come from patent publication US8080522B2, “Polyethlene glycol modifications of thymosin alpha-1” (Institute of Pharmacology and Toxicology Academy of …, priority 2005, dated 2011).

Where no end group is shown, it is not given here.

Data set [1] in a line: Half-life in liver homogenate (HPLC). As to conditions: 37° C., sample 0.4 mg/mL or 0.8 mg/mL. The class given is in vitro ADME. Here is the method:
Experimental method: Prepare 0.4 mg/mL or 0.8 mg/mL sample aqueous solution in centrifuge tube, adding 50 μL liver homogenate. Then incubate for different time in 37° C. water bath. Terminate the reaction and precipitate liver homogenate protein by heating the mixture in boiling water for 5 minutes. Centrifuge it (10000 rpm) for 10 minutes. Analyze the supernatant by HPLC. The data was statistically analyzed by Origin Prof. 5.0.
HPLC: Column temperature: 25° C.; Flow rate 1.0 mL/min; Detection wavelength: 200 nm; Mobile phase A: 0.1% TFA/H2O; Mobile phase B: 0.1% TFA/70% CH3CN.

The subject of another data set is spleen cell. The data set can be described thus: Interferon-γ production of spleen cells stimulated by Con A (double antibody sandwich ELISA). Type of data set: cell-based. As to conditions: for Concentration of IFN-γ: Con A 0.5 μg/mL, 24 hours, n = 3; for Enhancement percentage: versus Con A alone. On the procedure: Prepare spleen cell suspension in sterile condition. Adjust cell concentration to 5×10^6 cell/mL by adding RPMI-1640 culture with 20% bovine serum. Add 0.5 mL cell suspension, 0.25 mL Con A (final concentration is 0.5 μg/mL) and 0.25 mL samples with different concentrations in 24-well plate; and add RPMI-1640 culture in control wells. Incubate the plates in a 5% CO2 chamber at 37° C. for 24 hours. Centrifuge and collect supernatant, test the content of IFN-γ in supernatant by double antibody sandwich ELISA. The protocol is according to the instruction on ELISA kit.

Data set [2] relates to T lymphocyte (spleen cell). The data set can be described thus: T lymphocyte proliferation stimulated by Con A (3H-TdR incorporation). As to conditions: for 3H-TdR incorporation (cpm, x ± SD): Con A 0.5 μg/mL, 72 hours, n = 4; for Enhancement percentage: versus Con A alone. The class given is cell-based, mouse. Here is the method:
Sacrifice mouse by draining artery blood, remove spleen in sterile condition, and make it to spleen cell suspension. After red blood cell lysis, wash for 3 times, and stain with Trypan Blue to count the living cells. The amount of living cells should be more than 95%. Dilute the cell concentration to 5×10^6 cell/mL by adding RPMI-1640 culture with 10% bovine serum. Add spleen cell suspension to a sterilized 96-well plate for 100 μL per well. The total amount is 200 μL per well (including 50 μL Con A and 50 μL medicament). Each sample concentration is repeated fro 3-4 wells. Incubate the plate in a 5% CO2 chamber for 72 hours, add 10 μci/mL ^3H-TdR 20 μL per well 16 hours before termination of the incubation, giving rise to a final concentration of 1.0 μci (37.0 KBq)/mL. Collect cells on filter membrane by using Herveste 96 cell harvester, dried in 80° C. oven for 20 minutes or dried in air. Put the dried filter membrane into 1450-423 microBeta sample bag, add scintillation liquid, and measure radioactivity (cpm) in Perkin Elmer MicroBeta Trilux 1450 Scintillation Counter.

A short description of data set [3]: Plasma concentration / pharmacokinetics in mouse (competitive ELISA). Type of data set: in vivo. As to conditions: 300 μg per mouse, injected peritoneally, parameters in 24 h, n = 3. Here is the method: Coating antigen: Dilute Tα1 detection antigen stock solution to a final concentration of 2 μg/mL with coating solution, and add it into the wells of ELISA plate for 0.1 mL per well, and incubate at 4° C. for 5 days. Then wash the ELISA plate 3 times with washing buffer, each 0.2 mL/well and 3 min/time. Add 0.2 mL blocking buffer to each well, incubate for 1.5 hours at 37° C., wash plate 2 times by washing buffer, and spin dried.
Sample preparation: Weight sample accurately, dissolve it in saline to a concentration of 1.5 mg/mL. Administrate 0.2 Ml by injection to each mouse peritoneally. Collect blood sample in 3 min, 20 min, 40 min, 1 h, 2 h, 3 h, 6 h, 8 h, 12 h, and 24 h. Collect serum by centrifuge the blood samples for 5 minutes at 10000 rpm, stored at −20° C. in a freezer. o prepare test sample, […] was added by 0.1 mL 1:1500 rabbit anti-Tα1 serum (final concentration is 1:6000), and 0.2 mL CD-1® mouse serum, and […]. Prepare blank control at the same time. Total volume is 0.4 mL. Incubate for 2 hours at 37° C. To prepare standard sample, Tα1 0.1 mL with different concentrations from 0.0004 to 400 μg/mL was added by 0.1 mL 1:1500 rabbit anti-Tα1 serum (final concentration is 1:6000), and 0.2 mL CD-1® mouse serum. Prepare blank control at the same time. Total volume is 0.4 mL. Incubate for 2 hours at 37° C.
Sample Testing Add the prepared test sample and standard sample to ELISA plate, 0.1 mL/well, reacting for 1 hour in 37° C. chamber. Wash the plates 3 times, spin dryed. Add substrate 0.1 mL/well for 10 minutes. Add 2 mol/L H2SO4 0.05 mL to each well to terminate the reaction. Measure the OD value at 450 nm. Plot the standard curve with the concentration of Tα1 standard sample as abscissa and OD value as vertical coordinate. Calculate the content of test sample according to this standard curve.
(In general: An ELISA detects its analyte on a solid surface through an enzyme-linked reagent.)

In the case of “Ac-[Cys^8(mPEG5000-MAL)]Tα1 (Ac-SDAAVDTC(mPEG5000‑maleimide)SEITTKDLKEKKEVVEEAEN; UniProt P06454 2-29, looked up, variant S8C) [BMJB008]”, in data set [1], the “t1/2 in liver homogenate” value is recorded as 65.2 h.

A word on the AUC: it is the area under the concentration-time curve, a measure of exposure. Lower therefore signals low exposure. For orientation: Cmax means the highest concentration seen after dosing. Usually Tmax stands for the time from dosing to the highest level. On to “BMJB012: PEG modification of Tα1, listed after BMJBT001 in Tables 1-2 and 2-2 (SDAAVDTSSEITTKDLKEKKEVVEEAEN; not fully specified; ends and bridges not checked; also: PEG conjugate, site not given here; UniProt P06454 2-29, looked up)”, for which the “Concentration of IFN-γ” value with spleen cell (Table 1-2, sample 1 μg/mL) is on record as 4224.7 ± 183.1 pg/mL; with spleen cell (Table 1-2, sample 10 μg/mL), 3115.3 ± 377.1 pg/mL; with spleen cell (Table 1-2, sample 100 μg/mL), 3277.7 ± 181.0 pg/mL. Moreover, the “Enhancement percentage” value in the data set with spleen cell (Table 1-2, sample 1 μg/mL) is recorded as “+29.7%”; in the data set on spleen cell (Table 1-2, sample 10 μg/mL), −4.4%; with spleen cell (Table 1-2, sample 100 μg/mL), “+0.6%”; in data set [2] (Table 2-2, sample 10 μg/mL), “+95.6%”; in data set [2] (Table 2-2, sample 50 μg/mL), “+106.7%”; in data set [2] (Table 2-2, sample 100 μg/mL), “+116.3%”. In addition, the “3H-TdR incorporation (cpm, x ± SD)” value in data set [2] (Table 2-2, sample 10 μg/mL) came out at 22772 ± 3222 cpm; in data set [2] (Table 2-2, sample 50 μg/mL), 24066 ± 4004 cpm; in data set [2] (Table 2-2, sample 100 μg/mL), 25176 ± 3656 cpm. In addition, the area under the curve (AUC) in data set [3] amounted to 8150 ng·h/mL. For the same substance, the maximum concentration (Cmax) in data set [3] came out at 348 ng/mL. The time of peak concentration (Tmax) in data set [3] was found to be 12.000 h.

As for “BMJB015: PEG modification of Tα1, listed after BMJBT004 in Table 1-2 (SDAAVDTSSEITTKDLKEKKEVVEEAEN; ends and bridges not checked; also: PEG conjugate, site not given here; UniProt P06454 2-29, looked up)”, in the data set with spleen cell (Table 1-2, sample 1 μg/mL), the “Concentration of IFN-γ” value came out at 3908.2 ± 147.2 pg/mL and the “Enhancement percentage” value was “+20.0%”. Moreover, in the data set on spleen cell (Table 1-2, sample 10 μg/mL), the “Concentration of IFN-γ” value amounted to 3962.9 ± 137.6 pg/mL and the “Enhancement percentage” value is given as “+21.6%”. Moreover, in the data set on spleen cell (Table 1-2, sample 100 μg/mL), the “Concentration of IFN-γ” value was determined as 3526.2 ± 68.0 pg/mL and the “Enhancement percentage” value is “+8.2%”. In data set [3], the exposure (AUC) came out at 106000 ng·h/mL, the Cmax amounted to 5082 ng/mL and the Tmax was 3.000 h.

As to “Ac-[Cys^17(mPEG5000-MAL)]Tα1 (Ac-SDAAVDTSSEITTKDLC(mPEG5000‑maleimide)EKKEVVEEAEN; UniProt P06454 2-29, looked up, variant K17C) [BMJB017]”, the “Concentration of IFN-γ” value was 1048.9 ± 181.4 pg/mL in the data set with spleen cell (Table 1-1, sample 1 μg/mL); 856.4 ± 61.8 pg/mL in the data set with spleen cell (Table 1-1, sample 10 μg/mL); 474.7 ± 10.2**↓ pg/mL with spleen cell (Table 1-1, sample 100 μg/mL). Besides, the “Enhancement percentage” value in the data set with spleen cell (Table 1-1, sample 1 μg/mL) is reported as “+39.5%”; in the data set on spleen cell (Table 1-1, sample 10 μg/mL), “+13.9%”; in the data set on spleen cell (Table 1-1, sample 100 μg/mL) it was −36.9%; in data set [2] (Table 2-1, sample 10 μg/mL) it was “+40.3%”; in data set [2] (Table 2-1, sample 50 μg/mL), “+56.4%”; in data set [2] (Table 2-1, sample 100 μg/mL), “+24.4%”. Besides, the “3H-TdR incorporation (cpm, x ± SD)” value was found to be 18919 ± 3507 cpm in data set [2] (Table 2-1, sample 10 μg/mL); 21091 ± 3916 cpm in data set [2] (Table 2-1, sample 50 μg/mL); 16778 ± 2483 cpm in data set [2] (Table 2-1, sample 100 μg/mL). Moreover, in data set [3], the AUC was found to be 83500 ng·h/mL. Besides, in data set [3], the Cmax was found to be 11980 ng/mL. The Tmax in data set [3] was found to be 1.000 h.

On to “BMJB020: PEG modification of Tα1 (SDAAVDTSSEITTKDLKEKKEVVEEAEN; ends and bridges not checked; also: PEG conjugate, site not given here; UniProt P06454 2-29, looked up)”, for which, in the data set on spleen cell (Table 1-3, sample 1 μg/mL), the “Concentration of IFN-γ” value is 3998.3 ± 157.7 pg/mL and the Enhancement percentage entry is “+30.9%”. For the same substance, in the data set on spleen cell (Table 1-3, sample 10 μg/mL), the “Concentration of IFN-γ” value is given as 2654.0 ± 211.1 pg/mL and the Enhancement percentage is recorded as −13.1%. In the data set with spleen cell (Table 1-3, sample 100 μg/mL), the “Concentration of IFN-γ” value amounted to 3135.8 ± 195.4 pg/mL and the Enhancement percentage entry is recorded as “+2.7%”. In data set [3], the area under the curve (AUC) amounted to 4080 ng·h/mL, the Cmax stood at 172 ng/mL and the Tmax is on record as 12.000 h.

In the case of “Ac-[Cys^5(mPEG5000-MAL)]Tα1 (Ac-SDAAC(mPEG5000‑maleimide)DTSSEITTKDLKEKKEVVEEAEN; UniProt P06454 2-29, looked up, variant V5C) [BMJB005]”, in data set [1], the “t1/2 in liver homogenate” value stood at 250.0 h.

Regarding “Ac-[Cys^16(mPEG5000-MAL)]Tα1 (Ac-SDAAVDTSSEITTKDC(mPEG5000‑maleimide)KEKKEVVEEAEN; UniProt P06454 2-29, looked up, variant L16C) [BMJB016]”, the “Concentration of IFN-γ” value in the data set with spleen cell (Table 1-1, sample 1 μg/mL) is given as 1426.8 ± 36.8 pg/mL; in the data set on spleen cell (Table 1-1, sample 10 μg/mL), 1295.7 ± 165.9 pg/mL; in the data set with spleen cell (Table 1-1, sample 100 μg/mL), 455.5 ± 79.3**↓ pg/mL. The “Enhancement percentage” value was “+89.8%” in the data set on spleen cell (Table 1-1, sample 1 μg/mL); “+72.4%” in the data set with spleen cell (Table 1-1, sample 10 μg/mL); −39.4% with spleen cell (Table 1-1, sample 100 μg/mL); “+60.9%” in data set [2] (Table 2-1, sample 10 μg/mL); “+67.4%” in data set [2] (Table 2-1, sample 50 μg/mL); “+53.5%” in data set [2] (Table 2-1, sample 100 μg/mL). Further, the “3H-TdR incorporation (cpm, x ± SD)” value stood at 21697 ± 3489 cpm in data set [2] (Table 2-1, sample 10 μg/mL); 22584 ± 1463 cpm in data set [2] (Table 2-1, sample 50 μg/mL); 20708 ± 1211 cpm in data set [2] (Table 2-1, sample 100 μg/mL). This substance returned an AUC in data set [3] of 120000 ng·h/mL. Besides, in data set [3], the Cmax was determined as 6289 ng/mL. For the same substance, the time to peak (Tmax) in data set [3] turned out to be 6.000 h.
